Assay [1] deals with T1, ALK-wt (Homo sapiens, UniProt Q9UM73).
T1 construct: purchased Carna 08-518
Kind of assay: Biochemical kinase assay, ALK-wt kinase domain. The conditions noted are these: apparent inhibitory constant, Morrison equation; ATP 2 mM in substrate solution; read-out: ALK-wt Ki^app. In a few lines: (§1)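 Apparent Ki values come from fitting initial reaction rates against inhibitor concentration to the Morrison equation. Rates were taken from the linear phase of fluorogenic substrate phosphorylation (AQT0101 for ALK and ROS1, AQT0104 for TRKA; 26 μM in substrate solution with 2 mM ATP), monitored at 485 nm over 120 min at 30° C.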

The target of assay [2] is T2, ALK L1196M/G1202R (Homo sapiens, UniProt Q9UM73, G1202R/L1196M).
T2 construct: purchased SignalChem A19-12NG
T2 sequence (Q9UM73 1116-1392 L1196M/G1202R limits assumed): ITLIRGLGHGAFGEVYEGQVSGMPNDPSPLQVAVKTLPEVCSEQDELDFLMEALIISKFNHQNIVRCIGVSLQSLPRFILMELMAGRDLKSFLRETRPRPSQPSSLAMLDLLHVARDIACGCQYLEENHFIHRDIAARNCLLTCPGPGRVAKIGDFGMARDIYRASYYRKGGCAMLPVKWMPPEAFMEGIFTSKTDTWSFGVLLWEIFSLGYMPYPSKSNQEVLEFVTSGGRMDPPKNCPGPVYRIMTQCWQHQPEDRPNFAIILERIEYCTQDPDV
Kind of assay: Biochemical kinase assay, ALK L1196M/G1202R kinase domain. The conditions noted are these: apparent inhibitory constant, Morrison equation; ATP 2 mM in substrate solution; read-out: ALK-L1196M-G1202R Ki^app. Summed up:
as §1

Assay [3] addresses T3, ROS1-wt (Homo sapiens, UniProt P08922).
T3 construct: purchased Carna 08-163
Briefly: Biochemical kinase assay, ROS1-wt kinase domain. The conditions noted are these: apparent inhibitory constant, Morrison equation; ATP 2 mM in substrate solution; read-out: ROS1-wt Ki^app. In a few lines: (§2)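 Compounds, as 100-fold DMSO stocks, were dispensed first, then substrate mix was added (ATP 2 mM, AQT0101 26 μM, in 50 mM HEPES pH 7.5/10 mM MgCl2). Reactions ran at 30 °C with fluorescence logged every 2 min over 120 min. Apparent inhibition constants came from fitting rates to Morrison's tight-binding equation.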

The target of assay [4] is T4, ROS1-G2032R (Homo sapiens, UniProt P08922, G2032R).
T4 construct: purchased SignalChem R14-12BG
T4 sequence (P08922 1945-2222 G2032R limits assumed): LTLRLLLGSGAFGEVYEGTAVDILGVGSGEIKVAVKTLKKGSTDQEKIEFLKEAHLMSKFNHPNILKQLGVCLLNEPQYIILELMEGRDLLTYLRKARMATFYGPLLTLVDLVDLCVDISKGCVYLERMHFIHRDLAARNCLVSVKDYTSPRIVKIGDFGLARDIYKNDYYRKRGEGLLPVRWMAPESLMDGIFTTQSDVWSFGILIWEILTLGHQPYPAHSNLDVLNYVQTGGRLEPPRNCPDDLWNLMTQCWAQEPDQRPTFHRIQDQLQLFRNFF
Briefly: Biochemical kinase assay, ROS1-G2032R kinase domain. The conditions noted are these: apparent inhibitory constant, Morrison equation; ATP 2 mM in substrate solution; read-out: ROS1-G2032R Ki^app. In a few lines: as §2

For assay [5], the target named is T5, TRKA-wt (Homo sapiens, UniProt P04629).
T5 construct: or TRKA-wt (1 nM, BPS Bio, 40280) kinase domains in buffer; purchased BPS Bio 40280
T5 sequence (P04629 510-781 limits assumed): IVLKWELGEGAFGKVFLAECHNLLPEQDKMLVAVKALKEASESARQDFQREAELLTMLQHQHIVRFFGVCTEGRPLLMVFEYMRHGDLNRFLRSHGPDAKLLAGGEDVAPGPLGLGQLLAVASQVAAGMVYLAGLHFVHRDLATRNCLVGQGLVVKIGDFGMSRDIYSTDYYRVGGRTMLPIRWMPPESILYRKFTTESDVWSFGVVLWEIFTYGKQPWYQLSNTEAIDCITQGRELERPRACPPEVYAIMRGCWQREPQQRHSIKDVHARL
Briefly: Biochemical kinase assay, TRKA-wt kinase domain. The conditions noted are these: apparent inhibitory constant, Morrison equation; ATP 2 mM in substrate solution; read-out: TRKA-wt Ki^app. In a few lines:
as §1

Assay [6] deals with T6, Ba/F3 cells CD74-ROS1 wild-type (wt) (Homo sapiens, UniProt P08922).
T6 construct: fusion of the C-terminus of ROS1 with the N-terminus of various partner proteins; host or cells: Ba/F3 (RIKEN), retroviral pMSCV-puro; the other entry of the earlier key: CD74 (P04233, HLA class II histocompatibility antigen gamma chain)
T6 sequence (P08922 1883-2347 limits assumed): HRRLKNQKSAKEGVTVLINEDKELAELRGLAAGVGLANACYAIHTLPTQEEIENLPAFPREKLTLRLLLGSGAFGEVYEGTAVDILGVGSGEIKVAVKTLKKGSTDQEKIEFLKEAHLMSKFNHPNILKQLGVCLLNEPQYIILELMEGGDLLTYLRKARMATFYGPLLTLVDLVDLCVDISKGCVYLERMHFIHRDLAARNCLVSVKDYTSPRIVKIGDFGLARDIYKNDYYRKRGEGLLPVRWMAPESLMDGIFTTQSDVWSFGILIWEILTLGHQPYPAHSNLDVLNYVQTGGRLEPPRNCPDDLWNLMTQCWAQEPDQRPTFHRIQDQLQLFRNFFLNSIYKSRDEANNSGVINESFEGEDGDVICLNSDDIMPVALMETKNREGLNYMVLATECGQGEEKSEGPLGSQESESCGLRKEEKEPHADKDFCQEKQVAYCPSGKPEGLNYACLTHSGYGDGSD
Kind of assay: Ba/F3 cell proliferation assay, CD74-ROS1 wild-type. It counts as cell-based. The conditions noted are these: 72 hours, CellTiter-Glo. Summed up:
(§3)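 Viability read by CellTiter-Glo luminescence after 72 h exposure to 3-fold serial compound dilutions, four-parameter logistic fitting giving IC50.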

The target in assay [7] is T7, Ba/F3 cells CD74-ROS1 G2032R (Homo sapiens, UniProt P08922, G2032R).
T7 construct: fusion of the C-terminus of ROS1 with the N-terminus of various partner proteins; host or cells: Ba/F3 (RIKEN), retroviral pMSCV-puro; the other entry of the earlier key: CD74 (P04233, HLA class II histocompatibility antigen gamma chain)
T7 sequence (P08922 1883-2347 G2032R limits assumed): as the sequence (P08922 1883-2347 limits assumed) above, with G150R counted along it
Kind of assay: Ba/F3 cell proliferation assay, CD74-ROS1 G2032R. Particulars: 72 hours, CellTiter-Glo. It counts as cell-based. In a few lines: as §3
(In general: In ATP-based viability assays light output follows the ATP content of the culture.)

In assay [8] the target is T8, Ba/F3 cells EML4-ALK wt (variant 1) (Homo sapiens, UniProt Q9UM73).
T8 construct: echinoderm microtubule-associated protein-like 4 (EML4) gene and the ALK tyrosine kinase domain; host or cells: Ba/F3 (RIKEN), retroviral pMSCV-puro; the other entry of the earlier key: EML4 (Q9HC35, Echinoderm microtubule-associated protein-like 4)
T8 sequence (Q9UM73 with tags, fused parts or gaps): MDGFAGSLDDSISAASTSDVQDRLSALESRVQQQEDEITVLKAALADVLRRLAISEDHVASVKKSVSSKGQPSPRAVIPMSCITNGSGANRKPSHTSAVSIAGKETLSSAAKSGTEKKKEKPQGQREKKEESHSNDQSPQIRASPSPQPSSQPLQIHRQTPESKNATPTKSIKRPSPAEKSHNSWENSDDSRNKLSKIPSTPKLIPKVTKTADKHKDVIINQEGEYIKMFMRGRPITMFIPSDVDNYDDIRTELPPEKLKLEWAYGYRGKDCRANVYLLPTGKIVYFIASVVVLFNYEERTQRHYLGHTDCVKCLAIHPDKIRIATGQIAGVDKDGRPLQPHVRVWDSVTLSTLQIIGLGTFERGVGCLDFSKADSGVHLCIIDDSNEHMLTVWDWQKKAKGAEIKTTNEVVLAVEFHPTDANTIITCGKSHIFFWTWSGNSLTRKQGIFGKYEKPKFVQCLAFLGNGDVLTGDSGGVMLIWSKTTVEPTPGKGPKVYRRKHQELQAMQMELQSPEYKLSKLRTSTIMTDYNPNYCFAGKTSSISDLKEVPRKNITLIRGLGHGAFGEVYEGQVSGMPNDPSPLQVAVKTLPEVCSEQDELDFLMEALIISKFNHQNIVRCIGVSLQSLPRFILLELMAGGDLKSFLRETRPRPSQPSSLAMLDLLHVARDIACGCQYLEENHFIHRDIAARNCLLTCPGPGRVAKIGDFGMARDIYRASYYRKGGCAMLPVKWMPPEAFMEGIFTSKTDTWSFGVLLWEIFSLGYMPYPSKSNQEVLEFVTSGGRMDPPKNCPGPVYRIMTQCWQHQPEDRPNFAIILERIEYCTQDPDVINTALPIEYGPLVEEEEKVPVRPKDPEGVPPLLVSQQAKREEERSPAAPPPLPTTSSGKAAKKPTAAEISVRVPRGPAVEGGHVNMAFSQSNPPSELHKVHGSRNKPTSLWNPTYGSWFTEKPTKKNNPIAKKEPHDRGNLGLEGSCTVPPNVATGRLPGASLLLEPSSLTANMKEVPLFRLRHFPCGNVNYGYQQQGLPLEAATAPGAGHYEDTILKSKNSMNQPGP
Kind of assay: Ba/F3 cell proliferation assay, EML4-ALK wt (variant 1). It counts as cell-based. Particulars: 72 hours, CellTiter-Glo. Summed up:
(§4)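 Proliferation of fusion-driven Ba/F3 monoclones (grown without IL-3, puromycin 0.8 μg/mL) is followed over 72 hours of treatment with a 3-fold compound dilution series. ATP content is read by CellTiter-Glo luminescence, and IC50 is derived by four-parameter logistic fitting of percent inhibition.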

Assay [9] concerns the target T9, Ba/F3 cells EML4-ALK L1196M/G1202R (variant 1) (Homo sapiens, UniProt Q9UM73, G1202R/L1196M).
T9 construct: echinoderm microtubule-associated protein-like 4 (EML4) gene and the ALK tyrosine kinase domain; host or cells: Ba/F3 (RIKEN), retroviral pMSCV-puro; the other entry of the earlier key: EML4 (Q9HC35, Echinoderm microtubule-associated protein-like 4)
Briefly: Ba/F3 cell proliferation assay, EML4-ALK L1196M/G1202R (variant 1). It counts as cell-based. Particulars: 72 hours, CellTiter-Glo. Summed up: as §4

Assay [10] concerns the target T10, Ba/F3 cells TPM3-TRKA (Homo sapiens, UniProt P04629).
T10 construct: host or cells: Ba/F3 (RIKEN), retroviral pMSCV-puro; the other entry of the earlier key: TPM3 (P06753, Tropomyosin alpha-3 chain)
Briefly: Ba/F3 cell proliferation assay, TPM3-TRKA. It counts as cell-based. The conditions noted are these: 72 hours, CellTiter-Glo, read-out: TPM3-NTRK1-wt IC50. In a few lines:
as §4

Assay [11] relates to TPM3-NTRK1-wt IC50 / primary target IC50 (e.g. CD74-ROS1-wt). Briefly: TRKA selectivity in Ba/F3 cells (TRKA potency divided by primary target potency). Format: cell-based. Particulars: for TPM3-NTRK1-wt/CD74-ROS1-G2032R selectivity ratio: TRKA potency / CD74-ROS1-G2032R potency; for TPM3-NTRK1-wt/CD74-ROS1-wt selectivity ratio: TRKA potency / CD74-ROS1-wt potency; for TPM3-NTRK1-wt/EML4-ALK-L1196M-G1202R selectivity ratio: TRKA potency / EML4-ALK-L1196M-G1202R potency; for TPM3-NTRK1-wt/EML4-ALK-wt selectivity ratio: TRKA potency / EML4-ALK-wt potency. The protocol:
TRKA selectivity was calculated by dividing a compound's TRKA potency by its primary target potency (e.g. TPM3-NTRK1-wt IC50/CD74-ROS1-wt IC50). Compound selectivity can be interpreted by binning ratio values: bin A for very high selectivity, ratio >30-fold; bin B for high selectivity, ratio >10-fold; bin C for moderate selectivity, ratio ≥1; and bin D for low selectivity, ratio <1. […] (nd=not determined).

Bounds are passed on as bounds.

From US12054498B2, “Heteroaromatic macrocyclic ether chemotherapeutic agents” (Nuvalent, Inc., priority 2020, dated 2024) come the findings set out here.

A word on the IC50: it is the concentration that gives 50% inhibition.

T9 sequence (Q9UM73 with tags, fused parts or gaps L1196M/G1202R): as the sequence (Q9UM73 with tags, fused parts or gaps) above, with L635M, G641R counted along it
T1 sequence (Q9UM73 1116-1392 limits assumed): as the sequence (Q9UM73 1116-1392 L1196M/G1202R limits assumed) above, with M81L, R87G counted along it
T3 sequence (P08922 1945-2222 limits assumed): as the sequence (P08922 1945-2222 G2032R limits assumed) above, with R88G counted along it
T10 sequence (P04629 510-796 limits assumed): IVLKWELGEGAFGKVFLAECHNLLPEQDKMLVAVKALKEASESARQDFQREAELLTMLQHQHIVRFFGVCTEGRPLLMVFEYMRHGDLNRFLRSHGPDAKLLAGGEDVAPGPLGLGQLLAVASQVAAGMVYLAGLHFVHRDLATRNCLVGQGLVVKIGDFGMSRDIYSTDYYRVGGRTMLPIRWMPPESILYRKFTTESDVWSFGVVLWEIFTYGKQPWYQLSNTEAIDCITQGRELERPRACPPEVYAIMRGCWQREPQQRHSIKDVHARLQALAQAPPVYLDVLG

As to `C[C@H]1Oc2cc(cnc2N)-c2c(cnn2CC(F)F)Cc2ncc(F)cc2-c2ccc(F)cc21` [Example 73, (20R)-3-(2,2difluoroethyl)-11,17-difluoro-20-methyl-21-oxa-3,4.9,24-tetraazapentacyclo[20.3.1.0^2,^6.0^8,^13.0^13,^19]hexacosa-1(25),2(6),4,8(13),9,11,14,16,18,22(26),23-undecaen-23-amine], the Ki was below 0.05 µM in assay [1]; below 0.05 µM in assay [2]; below 0.05 µM in [3]; below 0.05 µM in [4]; 0.05 to 0.5 µM in assay [5]. Further, the IC50 was in the range of 0.0001 to 0.05 µM in assay [6]; 0.0001 to 0.05 µM in assay [7]; 0.0001 to 0.05 µM in assay [8]; 0.05 to 0.5 µM in assay [9]; 0.05 to 0.5 µM in assay [10]. In addition, the TPM3-NTRK1-wt/CD74-ROS1-G2032R selectivity ratio entry in assay [11] is listed as “A (bin A for very high selectivity, ratio >30-fold)”. Further, the TPM3-NTRK1-wt/CD74-ROS1-wt selectivity ratio entry in assay [11] is “A (bin A for very high selectivity, ratio >30-fold)”. Further, the TPM3-NTRK1-wt/EML4-ALK-L1196M-G1202R selectivity ratio result in assay [11] is recorded as “C (bin C for moderate selectivity, ratio ≥1)”. Moreover, the TPM3-NTRK1-wt/EML4-ALK-wt selectivity ratio result in assay [11] was “A (bin A for very high selectivity, ratio >30-fold)”.
Consider `C[C@H]1Oc2cc(cnc2N)-c2c(cnn2CC2CC2)Cn2nc(Cl)cc2-c2ccc(F)cc21` [Example 74, (19R)-10-chloro-3-(cyclopropylmethyl)-16-fluoro-19-methyl-20-oxa-3,4,8,9,23-pentaazapentacyclo[19.3.1.0^2,^6.0^8,^12.0^13,^18]pentacosa-1(24),2(6),4,9,11,13,15,17,21 (25),22-decaen-22-amine], for which the Ki is below 0.05 µM in assay [1]; below 0.05 µM in [2]; below 0.05 µM in assay [3]; below 0.05 µM in [4]; 0.05 to 0.5 µM in [5]. The IC50 in assay [6] fell in the range of 0.0001 to 0.05 µM; in [7], 0.0001 to 0.05 µM; in assay [8] it was 0.0001 to 0.05 µM; in [9], 0.0001 to 0.05 µM; in [10] it was 0.05 to 0.5 µM. Further, the TPM3-NTRK1-wt/CD74-ROS1-G2032R selectivity ratio entry in [11] is listed as “A (bin A for very high selectivity, ratio >30-fold)”. The TPM3-NTRK1-wt/CD74-ROS1-wt selectivity ratio result in assay [11] is given as “A (bin A for very high selectivity, ratio >30-fold)”. Further, the TPM3-NTRK1-wt/EML4-ALK-L1196M-G1202R selectivity ratio result in [11] is reported as “B (bin B for high selectivity, ratio >10-fold)”. Further, the TPM3-NTRK1-wt/EML4-ALK-wt selectivity ratio entry in [11] was “A (bin A for very high selectivity, ratio >30-fold)”.
With `Cc1nc2n(n1)Cc1cnn(CC3CC3)c1-c1cnc(N)c(c1)O[C@H](C)c1cc(F)ccc1-2` [Example 75, (19R)-3-(cyclopropylmethyl)-16-fluoro-10,19-dimethyl-20-oxa-3,4,8,9,11,23-hexaazapentacyclo[19.3.10^2,^6.0^8,^12.0^13,^18]pentacosa-1(24),2(6),4,9,11,13,15,17,21(25),22-decaen-22-amine], the Ki in assay [1] is below 0.05 µM; in [2] it was below 0.05 µM; in assay [3], below 0.05 µM; in assay [4], below 0.05 µM; in [5], 0.05 to 0.5 µM. The IC50 is 0.0001 to 0.05 µM in assay [6]; 0.0001 to 0.05 µM in assay [7]; 0.0001 to 0.05 µM in [8]; 0.0001 to 0.05 µM in [9]; 0.05 to 0.5 µM in assay [10]. Further, the TPM3-NTRK1-wt/CD74-ROS1-G2032R selectivity ratio entry in assay [11] is given as “A (bin A for very high selectivity, ratio >30-fold)”. In assay [11], the TPM3-NTRK1-wt/CD74-ROS1-wt selectivity ratio result is recorded as “A (bin A for very high selectivity, ratio >30-fold)”. The TPM3-NTRK1-wt/EML4-ALK-L1196M-G1202R selectivity ratio entry in assay [11] is recorded as “B (bin B for high selectivity, ratio >10-fold)”. Moreover, the TPM3-NTRK1-wt/EML4-ALK-wt selectivity ratio result in assay [11] is recorded as “A (bin A for very high selectivity, ratio >30-fold)”.
For `Cc1nc2c(o1)-c1ccc(F)cc1[C@@H](C)Oc1cc(cnc1N)-c1c(cnn1CC1CC1)C2` [Example 76, (19R)-3-(cyclopropylmethyl)-16-fluoro-10,19-dimethyl-11,20-dioxa-3,4,9,23-tetraazapentacyclo[19.3.1,0^2,^6.0^8,^12.0^13,^18]pentacosa-1(24),2(6),4,8(12),9,13,15,17,21(25),22-decaen-22-amine], the Ki in [1] was below 0.05 µM; in [2], below 0.05 µM; in assay [3] it was below 0.05 µM; in assay [4] it was below 0.05 µM; in assay [5], above 0.5 µM. Besides, the half-inhibitory concentration (IC50) is 0.0001 to 0.05 µM in assay [6]; 0.0001 to 0.05 µM in assay [7]; 0.0001 to 0.05 µM in assay [8]; 0.0001 to 0.05 µM in [9]; above 0.5 µM in assay [10]. Besides, the TPM3-NTRK1-wt/CD74-ROS1-G2032R selectivity ratio result in assay [11] is “A (bin A for very high selectivity, ratio >30-fold)”. In [11], the TPM3-NTRK1-wt/CD74-ROS1-wt selectivity ratio result is recorded as “A (bin A for very high selectivity, ratio >30-fold)”. Moreover, the TPM3-NTRK1-wt/EML4-ALK-L1196M-G1202R selectivity ratio entry in [11] was “A (bin A for very high selectivity, ratio >30-fold)”. For the same compound, in assay [11], the TPM3-NTRK1-wt/EML4-ALK-wt selectivity ratio result is given as “A (bin A for very high selectivity, ratio >30-fold)”.
As to `Cc1nn(CC(C)C)c2c1Cn1ncnc1-c1ccc(F)cc1[C@@H](C)Oc1cc-2cnc1N` [Example 79, (19R)-16-fluoro-5,19-dimethyl-3-(2-methylpropyl)-20-oxa-3,4,8,9,11,23-hexaazapentacyclo [19.3.1.0^2,^6.0^8,^12.0^13,^18]pentacosa-1(2.4),2(6),4,9,11,13,15,17,21(25),22-decaen-22-amine], the Ki is below 0.05 µM in assay [1]; 0.05 to 0.5 µM in [2]; below 0.05 µM in assay [3]; above 0.5 µM in assay [4]; above 0.5 µM in [5]. The concentration for half-maximal inhibition (IC50) in assay [6] is 0.0001 to 0.05 µM; in assay [7], above 0.5 µM; in assay [8], 0.0001 to 0.05 µM; in assay [9], above 0.5 µM; in [10], above 0.5 µM. For the same compound, the TPM3-NTRK1-wt/CD74-ROS1-G2032R selectivity ratio result in assay [11] is “B (bin B for high selectivity, ratio >10-fold)”. Further, the TPM3-NTRK1-wt/CD74-ROS1-wt selectivity ratio result in assay [11] is reported as “A (bin A for very high selectivity, ratio >30-fold)”. Moreover, in assay [11], the TPM3-NTRK1-wt/EML4-ALK-L1196M-G1202R selectivity ratio result is given as “C (bin C for moderate selectivity, ratio ≥1)”. For the same compound, in [11], the TPM3-NTRK1-wt/EML4-ALK-wt selectivity ratio entry was “A (bin A for very high selectivity, ratio >30-fold)”.
